In PubChem BioAssay (NCI):
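Exposure lasted 48 hours, with cells grown in 96-well plates and compounds tested at five concentrations. Definition used: TGI = concentration required for complete inhibition of growth.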

Tests used:
Assay in all cases: NCI tumour cell line growth inhibition, 48 h
[1] = tested on: EKVX NSCLC
[2] = tested on: COLO 205 colon
[3] = tested on: OVCAR-5 ovarian
[4] = tested on: T-47D breast
[5] = tested on: OVCAR-4 ovarian
[6] = tested on: 786-0 renal
[7] = tested on: A549 NSCLC
[8] = tested on: UO-31 renal
[9] = tested on: HCT-116 colon
[10] = tested on: HOP-92 NSCLC
[11] = tested on: SN12C renal
[12] = tested on: OVCAR-3 ovarian
[13] = tested on: MALME-3M melanoma
[14] = tested on: MDA-MB-231 breast
[15] = tested on: SW-620 colon
[16] = tested on: NCI-H522 lung
[17] = tested on: CCRF-CEM leukemia
[18] = tested on: U251 CNS
[19] = tested on: UACC-257 melanoma
[20] = tested on: HS 578T breast
[21] = tested on: PC-3 prostate
[22] = tested on: LOX IMVI melanoma
[23] = tested on: MDA-MB-435
[24] = tested on: RXF 393 renal
[25] = tested on: SF-268 CNS
[26] = tested on: OVCAR-8 ovarian
[27] = tested on: HCT-15 colon
[28] = tested on: HOP-62 NSCLC
[29] = tested on: SK-MEL-28 melanoma
[30] = tested on: SK-MEL-2 melanoma
[31] = tested on: NCI-H460 lung
[32] = tested on: NCI-H226 lung
[33] = tested on: MCF7 breast
[34] = tested on: SNB-19 CNS
[35] = tested on: SK-OV-3 ovarian
[36] = tested on: TK-10 renal
[37] = tested on: DU-145 prostate
[38] = tested on: SF-539 CNS
[39] = tested on: UACC-62 melanoma
[40] = tested on: HCC-2998 colon
[41] = tested on: SF-295 CNS
[42] = tested on: K-562 leukemia
[43] = tested on: BT-549 breast
[44] = tested on: SR leukemia
[45] = tested on: ACHN renal
[46] = tested on: M14 melanoma
[47] = tested on: HL-60(TB) leukemia
[48] = tested on: HT29 colon
[49] = tested on: CAKI-1 renal
[50] = tested on: IGROV1 ovarian
[51] = tested on: NCI-H23 lung
[52] = tested on: SNB-75 CNS
[53] = tested on: A498 renal
[54] = tested on: KM12 colon
[55] = tested on: RPMI-8226 leukemia
[56] = tested on: MDA-N
[57] = tested on: MOLT-4 leukemia
[58] = tested on: SK-MEL-5 melanoma
[59] = tested on: NCI/ADR-RES ovarian

Measured: TGI

CN(C(=O)c1ccccc1)C1CCCC(=O)CC1 (stereo not given)
not listed: [57] | [58] | [59]
> 100 µM: all other assays above

COC(=O)CCCc1c(-c2[nH]c3ccccc3c2CCCC(=O)OC)[nH]c2ccccc12
not listed: [5] | [33] | [40] | [44]
> 100 µM: all other assays above

CNc1nc(SC)nc2c1c(N)nn2C
not listed: [1] | [33] | [38] | [44] | [47]
> 100 µM: all other assays above
